# Measured values: patent publication US6037341A, “Carbapenem derivatives” (Eisai Co., Ltd., priority 1994, dated 2000)
# How the values were obtained:
# Assay type in all cases: cell-based
# S. aureus E31295 = assay: MIC, S. aureus E31295; conditions: Staphylococcus aureus
# E. coli CS109 = assay: MIC, E. coli CS109; conditions: Escherichia coli
# H. influenzae IID1638 = assay: MIC, H. influenzae IID1638; conditions: Haemophilus influenzae
# P. aeruginosa E03763 = assay: MIC, P. aeruginosa E03763; conditions: Pseudomonas aeruginosa
# P. aeruginosa NCTC10490 = assay: MIC, P. aeruginosa NCTC10490; conditions: Pseudomonas aeruginosa
# P. aeruginosa PA01 = assay: MIC, P. aeruginosa PA01; conditions: Pseudomonas aeruginosa
# [1] = system: P. aeruginosa E03441/SKR2-14; assay: MIC, P. aeruginosa E03441/SKR2-14; conditions: Pseudomonas aeruginosa, E03441/SKR214
# [2] = system: P. aeruginosa E03441/SKR2/I-2; assay: MIC, P. aeruginosa E03441/SKR2/I-2; conditions: Pseudomonas aeruginosa
# P. aeruginosa E03441/WT = assay: MIC, P. aeruginosa E03441/WT; conditions: Pseudomonas aeruginosa
# [3] = system: P. aeruginosa E03441/SKR2; assay: MIC, P. aeruginosa E03441/SKR2; conditions: Pseudomonas aeruginosa
# P. aeruginosa E03441/R24 = assay: MIC, P. aeruginosa E03441/R24; conditions: Pseudomonas aeruginosa
# P. aeruginosa E03402 = assay: MIC, P. aeruginosa E03402; conditions: Pseudomonas aeruginosa
smiles,measurement,setting,value
C[C@@H](O)[C@H]1C(=O)N2C(C(=O)O)=C(S[C@@H]3CN[C@H](C(O)C4CCNC4)C3)[C@H](C)[C@H]12 (stereo partly drawn),MIC,S. aureus E31295,0.1 µg/mL
same,MIC,E. coli CS109,0.05 µg/mL
same,MIC,H. influenzae IID1638,0.2 µg/mL
same,MIC,P. aeruginosa E03763,0.8 µg/mL
same,MIC,P. aeruginosa NCTC10490,0.1 µg/mL
same,MIC,P. aeruginosa PA01,0.2 µg/mL
same,MIC,[1],0.1 µg/mL
same,MIC,[2],0.4 µg/mL
same,MIC,P. aeruginosa E03441/WT,0.2 µg/mL
same,MIC,[3],0.2 µg/mL
same,MIC,P. aeruginosa E03441/R24,3.13 µg/mL
same,MIC,P. aeruginosa E03402,0.1 µg/mL
